Measurements taken from patent publication US4425356A, “Lankacidin derivatives used in swine husbandry” (Takeda Chemical Industries, Ltd., priority 1980, dated 1984).

Assay: growth of pigs, 5-month continuous dietary administration, Test Examples 10-11
Assay type: in vivo, Landrace pigs
Details: for Body weight at end / Body weight at feed exchange / Body weight gain for starter feed period / Body weight gain for whole period / Feed conversion for starter feed period / Feed conversion for whole period / Feed intake for starter feed period / Feed intake for whole period: mean per head; for growth and feed efficiency (in words): dietary, 5 months
Description: Effects of compound (I) on the growth of pigs under the conditions in which swine dysentery was absent were examined. Thus, 40 one-month-old Landrace pigs (5 litters) were used in groups each consisting of 8 (4 males and 4 females). Lankacidin C was added in concentrations of 0 (control), 1, 2.5, 5 and 10 ppm to antibacterial agent-free starter feed for the period from the start of the test through the age of 3 months and to the feed for testing pigs for performance of meat production (also free of antibacterial agents) for the period from the age of 4 months to the age of 6 months (end). Thus, in each group, dietary lankacidin C was administered continuously for 5 months.
The data are each the mean value per head. Different alphabetic letters o
Fourty-eight 35-day-old Landrace pigs (6 litters) were used in 6 groups each consisting of 8 (4 males and 4 females). Lankacidin A was added in concentrations of 0 (control), 1, 2.5, 5, 10 and 20 ppm to antibacterial agent-free starter feed for the period from the start of the test through the age of 3 months and to the feed for testing pigs for performance of meat production (also free of antibacterial agents) for the period from the age of 4 months to the age of 6 months (end).

CC(=O)OC1C=CC(C)=CCC(O)C=CC(C)=CC(NC(=O)C(C)=O)C2(C)C(=O)OC(C1)C(C)C2=O (centres unmarked) [Lankacidin A, lankacidin A]
Body weight at end (1 ppm in feed): 111.6 kg
Body weight at feed exchange (1 ppm in feed): 34.0 kg
Body weight gain for starter feed period (1 ppm in feed): 24.8 kg
Body weight gain for whole period (1 ppm in feed): 102.4 kg
Feed conversion for starter feed period (1 ppm in feed): 1.94
Feed conversion for whole period (1 ppm in feed): 2.88
Feed intake for starter feed period (1 ppm in feed): 48.1 kg
Feed intake for whole period (1 ppm in feed): 294.9 kg
Body weight at end (2.5 ppm in feed): 113.5 kg
Body weight at feed exchange (2.5 ppm in feed): 34.6 kg
Body weight gain for starter feed period (2.5 ppm in feed): 25.4 kg
Body weight gain for whole period (2.5 ppm in feed): 104.4 kg
Feed conversion for starter feed period (2.5 ppm in feed): 1.87
Feed conversion for whole period (2.5 ppm in feed): 2.83
Feed intake for starter feed period (2.5 ppm in feed): 47.6 kg
Feed intake for whole period (2.5 ppm in feed): 295.3 kg
Body weight at end (5 ppm in feed): 118.3 kg
Body weight at feed exchange (5 ppm in feed): 36.1 kg
Body weight gain for starter feed period (5 ppm in feed): 26.9 kg
Body weight gain for whole period (5 ppm in feed): 109.1 kg
Feed conversion for starter feed period (5 ppm in feed): 1.77
Feed conversion for whole period (5 ppm in feed): 2.79
Feed intake for starter feed period (5 ppm in feed): 47.6 kg
Feed intake for whole period (5 ppm in feed): 304.3 kg
Body weight at end (10 ppm in feed): 120.5 kg
Body weight at feed exchange (10 ppm in feed): 36.7 kg
Body weight gain for starter feed period (10 ppm in feed): 27.6 kg
Body weight gain for whole period (10 ppm in feed): 111.4 kg
Feed conversion for starter feed period (10 ppm in feed): 1.73
Feed conversion for whole period (10 ppm in feed): 2.74
Feed intake for starter feed period (10 ppm in feed): 47.7 kg
Feed intake for whole period (10 ppm in feed): 305.2 kg
Body weight at end (20 ppm in feed): 123.4 kg
Body weight at feed exchange (20 ppm in feed): 37.4 kg
Body weight gain for starter feed period (20 ppm in feed): 28.8 kg
Body weight gain for whole period (20 ppm in feed): 114.2 kg
Feed conversion for starter feed period (20 ppm in feed): 1.71
Feed conversion for whole period (20 ppm in feed): 2.72
Feed intake for starter feed period (20 ppm in feed): 48.2 kg
Feed intake for whole period (20 ppm in feed): 310.6 kg
growth and feed efficiency (in words): Swine growth was promoted proportionally to the increase of level of addition of lankacidin A, and the feed efficiency was improved accordingly

CC(=O)C(=O)NC1C=C(C)C=CC(O)CC=C(C)C=CC(O)CC2OC(=O)C1(C)C(=O)C2C (centres unmarked) [Lankacidin C, lankacidin C]
Body weight at end (1 ppm in feed): 102.4 kg
Body weight at feed exchange (1 ppm in feed): 32.7 kg
Body weight gain for starter feed period (1 ppm in feed): 25.4 kg
Body weight gain for whole period (1 ppm in feed): 95.0 kg
Feed conversion for starter feed period (1 ppm in feed): 1.95
Feed conversion for whole period (1 ppm in feed): 2.90
Feed intake for starter feed period (1 ppm in feed): 49.4 kg
Feed intake for whole period (1 ppm in feed): 275.6 kg
Body weight at end (2.5 ppm in feed): 104.6 kg
Body weight at feed exchange (2.5 ppm in feed): 34.2 kg
Body weight gain for starter feed period (2.5 ppm in feed): 26.9 kg
Body weight gain for whole period (2.5 ppm in feed): 97.2 kg
Feed conversion for starter feed period (2.5 ppm in feed): 1.83
Feed conversion for whole period (2.5 ppm in feed): 2.86
Feed intake for starter feed period (2.5 ppm in feed): 49.1 kg
Feed intake for whole period (2.5 ppm in feed): 278.0 kg
Body weight at end (5 ppm in feed): 109.0 kg
Body weight at feed exchange (5 ppm in feed): 36.9 kg
Body weight gain for starter feed period (5 ppm in feed): 29.5 kg
Body weight gain for whole period (5 ppm in feed): 101.7 kg
Feed conversion for starter feed period (5 ppm in feed): 1.72
Feed conversion for whole period (5 ppm in feed): 2.80
Feed intake for starter feed period (5 ppm in feed): 50.7 kg
Feed intake for whole period (5 ppm in feed): 284.6 kg
Body weight at end (10 ppm in feed): 110.2 kg
Body weight at feed exchange (10 ppm in feed): 37.5 kg
Body weight gain for starter feed period (10 ppm in feed): 30.1 kg
Body weight gain for whole period (10 ppm in feed): 102.8 kg
Feed conversion for starter feed period (10 ppm in feed): 1.70
Feed conversion for whole period (10 ppm in feed): 2.77
Feed intake for starter feed period (10 ppm in feed): 51.2 kg
Feed intake for whole period (10 ppm in feed): 284.8 kg
growth and feed efficiency (in words): growth of pigs was increased in a manner almost proportional to the level of addition of lankacidin C, and accordingly the feed efficiency was improved
